Assay results taken from patent US9625448B2, “Double caged GABA compounds, bis-CNB-GABA” (The Trustees of Princeton University, priority 2014, dated 2017).

How the values were obtained:
[1] = test system: cerebellar molecular layer interneurons; test: Photolysis-evoked GABAergic currents in cerebellar molecular layer interneurons; format: cell-based
Description: The biological properties of our synthetic bis-CNB-GABA were evaluated using whole-cell patch recording from cerebellar molecular layer interneurons.
FIGS. 42A-42E illustrate physiological responses to photolysis of bis-CNB-GABA. FIG. 42A illustrates a cerebellar molecular layer interneuron visualized using Alexa 488 in the patch recording electrode solution. Referring to FIG. 42A, bis-CNB-GABA (0.6 mM) was photolyzed with a 405 nm laser spot in 3 different locations (indicated by 1, 2 and 3). Still referring to FIG. 42A, laser-evoked GABAergic currents are shown on the right panel. Still referring to FIG. 42A, gray traces show individual sweeps and black traces are averages. Still referring to FIG. 42A, the gray sweep at bottom indicates the laser flash (1 ms duration, intensity 5 mW) as recorded using a photodiode. FIG. 42B illustrates bis-CNB-GABA (1.4 mM) was photolyzed with a […] LED at progressively higher flash energies (0.25-1.1 mW, 5-50 ms, 1.25-55 μJ). FIG. 42C illustrates the same experiment as shown in FIG. 42B with Responses to mono-CNB-GABA (50 μM). FIG. 42D illustrates normalized current as a function of relative LED flash energies plotted on a log-log scale. FIG. 42E illustrates laser-evoked whole-cell current recorded in the absence and presence of 3 μM gabazine, a GABA receptor antagonist. Referring to FIG. 42E, a larger flash energy was used in the presence of gabazine.
Referring to FIG. 42A, molecular layer interneurons receive excitatory glutamatergic synapses, as well as inhibitory GABAergic synapses that show a pronounced level of spontaneous activity (gray traces). The effects of bis-CNB-GABA on these synaptic currents were tested.
By contrast, the relationship for mono-O-CNB-GABA was close to linear (log-log slope=1.3±0.1, n=3). For these measurements, evoked currents were normalized to the maximum current observed in the same neuron. […] These power laws are consistent with a process in which each molecule of bis-CNB-GABA must cumulatively undergo two uncaging reactions in order to release an active GABAA agonist.
To test whether bis-CNB-GABA-evoked responses resemble physiological events in their kinetics, we measured the kinetic properties of flash responses. […] This rise time is consistent with the dark reaction time (1.5 ms) for the slower cage, N-mono-CNB-GABA (Wieboldt, R.; Ramesh, D.; Carpenter, B. K; Hess, G. P. Biochemistry, 1994, 33, 1526-1533, which is incorporated herein by reference as if fully set forth). […] These rates approach those of spontaneous events and are among the fastest described for other GABA cages. […]

dentate granule cells = test system: dentate granule cells; design: dose or concentration left out as unconfirmed; conditions: holding potential −80 mV; cited from earlier work

SMILES | rise time of GABA-induced currents upon photolysis ([1]; FIGS. 38A-38D) | 10-90% rise time of flash responses ([1]; responses comparable in size with spontaneous IPSCs, flash 1.0 ms, n=10) [ms] | effect on EPSC evoked by stimulation of the perforant path (dentate granule cells)
O=C(CCCNC(C(=O)O)c1ccccc1[N+](=O)[O-])OC(C(=O)O)c1ccccc1[N+](=O)[O-] (stereo not drawn) [bis-CNB-GABA, 2-((4-(Carboxy(2-nitrophenyl)methoxy)-4-oxobutyl)amino)-2-(2-nitrophenyl)acetic acid] | approximately 2 ms | 2.2±0.6 | 
NCCCC(=O)OC(C(=O)O)c1ccccc1[N+](=O)[O-] (stereo not drawn) [mono-CNB-GABA] |  |  | did not significantly affect
